Reference: the supplement of paper PMC4932681

Columns and labels:
Assay in all cases: viability inhibition at highest dose (% inhibition); higher = more growth inhibition
BT-474 = details: 72 h
Description: (§1)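 Percent inhibition of viability (CellTiter-Glo, 72 h) at the highest tested concentration (D5), normalised to DMSO (0%) and 100 µM benzethonium chloride (100%). Resistant lines and the 'in 1µM tamoxifen' arms were tested in 1 µM 4-OH-tamoxifen.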

T-47D Tam1 = details: 4-OH-tamoxifen in medium 1 µM; 72 h
Description: as §1

BT-474 Tam1 = details: 4-OH-tamoxifen in medium 1 µM; 72 h
Description: as §1

ZR-75-1 Tam2 = details: 4-OH-tamoxifen in medium 1 µM; 72 h
Description: as §1

ZR-75-1 Tam1 = details: 4-OH-tamoxifen in medium 1 µM; 72 h
Description: as §1

MCF-7 Tam1 = details: 4-OH-tamoxifen in medium 1 µM; 72 h
Description: as §1

T-47D = details: 72 h
Description: as §1

BT-474 Tam2 = details: 4-OH-tamoxifen in medium 1 µM; 72 h
Description: as §1

ZR-75-1 = details: 72 h
Description: as §1

MCF-7 = details: 72 h
Description: as §1

T-47D Tam2 = details: 4-OH-tamoxifen in medium 1 µM; 72 h
Description: as §1

SMILES	viability inhibition at highest dose (BT-474; 4-OH-tamoxifen in medium 0 µM)	viability inhibition at highest dose (BT-474; 4-OH-tamoxifen in medium 1 µM)	viability inhibition at highest dose (T-47D Tam1)	viability inhibition at highest dose (BT-474 Tam1)	viability inhibition at highest dose (ZR-75-1 Tam2)	viability inhibition at highest dose (ZR-75-1 Tam1)	viability inhibition at highest dose (MCF-7 Tam1)	viability inhibition at highest dose (T-47D; 4-OH-tamoxifen in medium 0 µM)	viability inhibition at highest dose (T-47D; 4-OH-tamoxifen in medium 1 µM)	viability inhibition at highest dose (BT-474 Tam2)	viability inhibition at highest dose (ZR-75-1; 4-OH-tamoxifen in medium 0 µM)	viability inhibition at highest dose (ZR-75-1; 4-OH-tamoxifen in medium 1 µM)	viability inhibition at highest dose (MCF-7; 4-OH-tamoxifen in medium 0 µM)	viability inhibition at highest dose (MCF-7; 4-OH-tamoxifen in medium 1 µM)	viability inhibition at highest dose (T-47D Tam2)
C=CCNC1=C2C[C@@H](C)C[C@H](OC)[C@H](O)[C@@H](C)/C=C(\C)[C@H](OC(N)=O)[C@@H](OC)/C=C\C=C(/C)C(=O)NC(=CC1=O)C2=O [Tanespimycin  (17-AAG)] (drug 10000 nM)	52.1	81.8	43.6	74.9	48.8	45.8	35.7	55.6	43.3	74.3	31	45.4	70	51.1	43.5
COc1ccc(-c2cc3c(C)nc(N)nc3n([C@H]3CC[C@H](OCCO)CC3)c2=O)cn1 (drug 10000 nM)	96.1	100	92.6	100	88.1	86.8	67.1	94.6	93.7	94.3	83.5	76.1	79.9	82.6	88.2
C#Cc1cccc(Nc2ncnc3cc(OC)c(OCCCCCCC(=O)NO)cc23)c1 [CUDC-101] (drug 10000 nM)	93.9	97	88.4	95.6	54.5	42.4	48.3	95.1	94.8	94.4	42.7	51.5	89.6	94.5	76.8
CS(=O)(=O)c1ccc(C(=O)Nc2ccc(Cl)c(-c3ccccn3)c2)c(Cl)c1 [Vismodegib] (drug 10000 nM)	2.54	9.28	-0.759	18.7	10.7	5.76	10.9	3.38	6.47	6.56	-1.58	4.37	8.35	5.18	3.9
COc1c(C)cnc(Cn2cnc3c(Cl)nc(N)nc32)c1C [BIIB021] (drug 10000 nM)	48.2	70.8	46	72.2	39.3	36.3	26.1	65.4	51.5	70.9	32.2	34.3	56.8	45.6	50
O=C(CCCCCCC(=O)Nc1ccccc1)NO [Vorinostat] (drug 10000 nM)	76.5	92.9	58.5	91.2	37.8	38.9	23.1	87.5	88.9	86.8	37.5	32.9	83.5	80.9	41.9
